In patent publication US11339130B1 (Blade Therapeutics, Inc., priority 2016, dated 2022):
Read-outs that look alike come from different tables or passages of the source.

Columns and labels:
Human Calpain 1/NS1 = biological target: T1, Human Calpain 1/NS1 (Homo sapiens, UniProt P07384); experiment: Calpain inhibition continuous fluorescence (FRET) assay, Human Calpain 1/NS1; format: biochemical; conditions: read-out: Human Calpain 1/NS1 IC50
T1 sequence (P07384 1-714): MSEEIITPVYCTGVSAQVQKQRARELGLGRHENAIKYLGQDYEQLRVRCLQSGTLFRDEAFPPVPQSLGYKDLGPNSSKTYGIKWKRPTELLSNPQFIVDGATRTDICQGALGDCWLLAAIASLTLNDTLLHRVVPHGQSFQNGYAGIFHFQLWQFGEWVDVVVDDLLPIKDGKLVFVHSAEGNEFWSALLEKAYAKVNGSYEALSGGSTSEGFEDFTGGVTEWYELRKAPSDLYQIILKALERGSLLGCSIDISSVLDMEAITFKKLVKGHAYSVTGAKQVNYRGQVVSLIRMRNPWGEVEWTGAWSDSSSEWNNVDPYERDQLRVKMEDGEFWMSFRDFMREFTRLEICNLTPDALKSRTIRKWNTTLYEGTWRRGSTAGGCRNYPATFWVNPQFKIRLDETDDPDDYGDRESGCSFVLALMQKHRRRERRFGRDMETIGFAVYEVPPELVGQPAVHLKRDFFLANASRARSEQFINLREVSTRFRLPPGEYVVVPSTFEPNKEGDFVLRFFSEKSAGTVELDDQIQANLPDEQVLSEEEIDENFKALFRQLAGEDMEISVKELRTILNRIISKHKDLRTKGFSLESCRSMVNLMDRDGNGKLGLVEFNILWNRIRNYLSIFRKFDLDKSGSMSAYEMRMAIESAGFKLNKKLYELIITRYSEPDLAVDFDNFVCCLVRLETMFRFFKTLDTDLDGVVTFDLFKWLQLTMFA
T1 sequence (P04632 1-268 partner): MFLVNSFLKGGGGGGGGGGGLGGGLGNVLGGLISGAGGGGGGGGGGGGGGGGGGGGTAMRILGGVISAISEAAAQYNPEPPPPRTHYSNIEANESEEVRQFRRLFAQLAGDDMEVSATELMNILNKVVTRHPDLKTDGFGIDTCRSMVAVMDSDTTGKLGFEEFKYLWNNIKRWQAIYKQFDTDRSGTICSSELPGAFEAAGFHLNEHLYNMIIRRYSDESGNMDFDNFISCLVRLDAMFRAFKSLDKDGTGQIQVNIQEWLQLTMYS
How it was run: (§1)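 Human calpains 1, 2 and 9 preincubated with inhibitor at 25 °C in 50 mM Tris pH 7.5, 100 mM NaCl, 1 mM DTT; reaction started with 5-FAM/QXL 520 FRET peptide plus CaCl2 for activation. Fluorescence (490/520 nm) followed 10 min; rates from 1-5 min slopes fitted to 4-parameter logistic for IC50.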

Human Calpain 9/NS1 = biological target: T2, Human Calpain 9/NS1 (Homo sapiens, UniProt O14815); experiment: Calpain inhibition continuous fluorescence (FRET) assay, Human Calpain 9/NS1; format: biochemical; conditions: read-out: Human Calpain 9/NS1 IC50
T2 sequence (O14815 1-690): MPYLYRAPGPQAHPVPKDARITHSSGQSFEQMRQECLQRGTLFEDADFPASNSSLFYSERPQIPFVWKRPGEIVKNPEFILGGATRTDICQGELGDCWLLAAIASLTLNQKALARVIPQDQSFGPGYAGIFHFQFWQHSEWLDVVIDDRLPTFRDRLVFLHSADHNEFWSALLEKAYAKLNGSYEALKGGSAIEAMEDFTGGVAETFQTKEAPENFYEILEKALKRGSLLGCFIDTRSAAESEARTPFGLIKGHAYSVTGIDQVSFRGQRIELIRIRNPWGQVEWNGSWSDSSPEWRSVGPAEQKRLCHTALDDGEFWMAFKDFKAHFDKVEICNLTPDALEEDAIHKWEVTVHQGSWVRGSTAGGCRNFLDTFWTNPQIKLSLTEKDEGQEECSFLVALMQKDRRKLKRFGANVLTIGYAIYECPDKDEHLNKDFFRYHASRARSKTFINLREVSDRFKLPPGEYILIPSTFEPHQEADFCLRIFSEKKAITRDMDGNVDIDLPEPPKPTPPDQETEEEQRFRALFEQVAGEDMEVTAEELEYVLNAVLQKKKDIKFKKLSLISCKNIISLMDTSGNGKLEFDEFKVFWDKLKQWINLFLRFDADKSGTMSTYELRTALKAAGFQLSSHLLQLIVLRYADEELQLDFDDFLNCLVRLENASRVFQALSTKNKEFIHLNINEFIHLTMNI
T2 sequence (P04632 1-268 partner): T1 sequence (P04632 1-268 partner)
How it was run: as §1

[1] = test system: Calpain activity in SH-SY5Y cells; experiment: SH-SY5Y + AMC fluorescence assay (Suc-LLVY-AMC substrate); format: cell-based; conditions: read-out: SH-SY5Y + AMC IC50
[2] = test system: Calpain activity in SH-SY5Y cells (SBDP-150); experiment: SH-SY5Y Spectrin western blot assay (SBDP-150 breakdown product, A23187-induced); format: cell-based; conditions: Homo sapiens, SH-SY5Y cells, read-out: SH-SY5Y Spectrin IC50
Human Calpain 2/NS1 = biological target: T3, Human Calpain 2/NS1 (Homo sapiens, UniProt P17655); experiment: Calpain inhibition continuous fluorescence (FRET) assay, Human Calpain 2/NS1; format: biochemical; conditions: read-out: Human Calpain 2/NS1 IC50
T3 sequence (P17655 1-700): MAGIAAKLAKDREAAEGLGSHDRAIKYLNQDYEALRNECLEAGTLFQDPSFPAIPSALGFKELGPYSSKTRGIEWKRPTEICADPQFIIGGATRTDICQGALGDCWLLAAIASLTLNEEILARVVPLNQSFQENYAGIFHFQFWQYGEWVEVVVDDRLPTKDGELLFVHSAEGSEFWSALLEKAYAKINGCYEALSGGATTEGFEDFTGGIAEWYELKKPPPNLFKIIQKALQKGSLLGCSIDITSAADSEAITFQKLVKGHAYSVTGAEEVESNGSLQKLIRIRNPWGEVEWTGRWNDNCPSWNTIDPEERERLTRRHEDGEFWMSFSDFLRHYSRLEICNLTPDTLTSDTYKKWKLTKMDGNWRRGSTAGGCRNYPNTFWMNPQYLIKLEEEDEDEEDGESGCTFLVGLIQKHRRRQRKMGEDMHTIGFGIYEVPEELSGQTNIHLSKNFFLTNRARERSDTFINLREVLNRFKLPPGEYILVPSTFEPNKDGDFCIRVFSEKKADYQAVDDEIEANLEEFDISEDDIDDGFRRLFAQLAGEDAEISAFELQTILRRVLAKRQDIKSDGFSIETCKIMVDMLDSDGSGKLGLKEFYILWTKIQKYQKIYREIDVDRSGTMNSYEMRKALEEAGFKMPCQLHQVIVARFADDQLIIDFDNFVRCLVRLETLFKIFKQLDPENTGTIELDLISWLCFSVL
T3 sequence (P04632 1-268 partner): T1 sequence (P04632 1-268 partner)
How it was run: as §1

[3] = Column D, A23187-induced SBDP-150
[4] = A23187-induced SBDP-150, western blot

For Cc1cc(C(=O)N[C@@H](Cc2ccccc2)C(=O)C(N)=O)n(-c2cccc(CNCc3ccccc3)c2)n1 [Compound 146, (S)—N-(4-amino-3,4-dioxo-1-phenylbutan-2-yl)-1-(3-((benzylamino)methyl)phenyl)-3-methyl-1H-pyrazole-5-carboxamide], the IC50 (Human Calpain 1/NS1; Column A) was < 3 µM, the IC50 (Human Calpain 9/NS1; Column C) was < 3 µM and the IC50 ([1]; Column E) was < 10 µM. The IC50 [2, 3] was 10 to 25 µM and the IC50 (Human Calpain 2/NS1; Column B) was < 3 µM.

In the case of Cc1nc(-c2ccccc2)c(C(=O)N[C@@H](Cc2ccccc2)C(O)C(N)=O)o1 (stereo partly drawn) [Compound 360, N-((2S)-4-amino-3-hydroxy-4-oxo-1-phenylbutan-2-yl)-2-methyl-4-phenyloxazole-5-carboxamide], the IC50 (Human Calpain 1/NS1) is reported as > 10 µM, the IC50 (Human Calpain 9/NS1) is reported as > 10 µM and the IC50 [1] is reported as > 25 µM. The IC50 [2, 4] was > 25 µM and the IC50 (Human Calpain 2/NS1) was > 10 µM.

For NC(=O)C(=O)C(Cc1ccccc1)NC(=O)c1cn(C2CCC2)nc1-c1ccccc1 (stereo not drawn) [Compound 526, N-(4-amino-3,4-dioxo-1-phenylbutan-2-yl)-1-cyclobutyl-3-phenyl-1H-pyrazole-4-carboxamide], the IC50 (Human Calpain 1/NS1) was < 3 µM, the IC50 (Human Calpain 9/NS1) was < 3 µM and the IC50 [1] was < 10 µM. The IC50 [2, 4] was > 25 µM and the IC50 (Human Calpain 2/NS1) was < 3 µM.

Cn1cc(C(=O)NC(CC(F)(F)F)C(=O)C(N)=O)c(-c2ccccc2)n1 (stereo not drawn) [Compound 424, N-(5-amino-1,1,1-trifluoro-4,5-dioxopentan-3-yl)-1-methyl-3-phenyl-1H-pyrazole-4-carboxamide] was tested, and the IC50 (Human Calpain 1/NS1) was 3 to 10 µM, the IC50 (Human Calpain 9/NS1) was < 3 µM and the IC50 [1] was > 25 µM. For the same compound, the IC50 [2, 4] was 10 to 25 µM and the IC50 (Human Calpain 2/NS1) was < 3 µM.

Cc1cccc(-c2nsnc2C(=O)NC(Cc2ccccc2)C(=O)C(N)=O)c1 (stereo not drawn) [Compound 325, N-(4-amino-3,4-dioxo-1-phenylbutan-2-yl)-4-(M-tolyl)-1,2,5-thiadiazole-3-carboxamide] was tested, and the IC50 (Human Calpain 1/NS1) was < 3 µM, the IC50 (Human Calpain 9/NS1) was < 3 µM and the IC50 [1] was > 25 µM. The IC50 [2, 4] was > 25 µM and the IC50 (Human Calpain 2/NS1) was < 3 µM.

CCn1cc(C(=O)N[C@@H](Cc2ccccc2)C(=O)C(N)=O)c(-c2ccccc2)n1 [Compound 239, (S)—N-(4-amino-3,4-dioxo-1-phenylbutan-2-yl)-1-ethyl-3-phenyl-1H-pyrazole-4-carboxamide] was tested, and the IC50 (Human Calpain 1/NS1; Column A) was < 3 µM, the IC50 (Human Calpain 9/NS1; Column C) was < 3 µM and the IC50 ([1]; Column E) was < 10 µM. The IC50 [2, 3] was 10 to 25 µM and the IC50 (Human Calpain 2/NS1; Column B) was < 3 µM.

CCOCc1cccc(-n2nc(C)cc2C(=O)N[C@@H](Cc2ccccc2)C(=O)C(N)=O)c1 [Compound 229, (S)—N-(4-amino-3,4-dioxo-1-phenylbutan-2-yl)-1-(3-(ethoxymethyl)phenyl)-3-methyl-1H-pyrazole-5-carboxamide] was tested, and the IC50 (Human Calpain 1/NS1; Column A) was < 3 µM, the IC50 (Human Calpain 9/NS1; Column C) was < 3 µM and the IC50 ([1]; Column E) was < 10 µM. The IC50 [2, 3] was < 10 µM and the IC50 (Human Calpain 2/NS1; Column B) was < 3 µM.

For NC(=O)C(=O)[C@H](Cc1ccccc1)NC(=O)c1c(-c2ccccc2)noc1C(F)(F)F [Compound 278, (S)—N-(4-amino-3,4-dioxo-1-phenylbutan-2-yl)-3-phenyl-5-(trifluoromethyl)isoxazole-4-carboxamide], the IC50 (Human Calpain 1/NS1; Column A) was < 3 µM, the IC50 (Human Calpain 9/NS1; Column C) was < 3 µM and the IC50 ([1]; Column E) was > 25 µM. For the same compound, the IC50 [2, 3] was < 10 µM and the IC50 (Human Calpain 2/NS1; Column B) was < 3 µM.

For Cc1nc(-c2ccccc2)c(C(=O)N[C@H](C=O)Cc2ccccc2)o1 [Compound 322, (S)-2-methyl-N-(1-oxo-3-phenylpropan-2-yl)-4-phenyloxazole-5-carboxamide], the IC50 (Human Calpain 1/NS1) was < 3 µM, the IC50 (Human Calpain 9/NS1) was < 3 µM and the IC50 [1] was > 25 µM. For the same compound, the IC50 [2, 4] was 10 to 25 µM and the IC50 (Human Calpain 2/NS1) was < 3 µM.

With Cn1cc(C(=O)NC(Cc2ccccc2)C(=O)C(N)=O)c(-c2cc3ccccc3cn2)n1 (stereo not drawn) [Compound 602, N-(4-amino-3,4-dioxo-1-phenylbutan-2-yl)-3-(isoquinolin-3-yl)-1-methyl-1H-pyrazole-4-carboxamide] the IC50 (Human Calpain 1/NS1) was < 3 µM, the IC50 (Human Calpain 9/NS1) was < 3 µM and the IC50 [1] was > 25 µM. The IC50 [2, 4] was 10 to 25 µM and the IC50 (Human Calpain 2/NS1) was < 3 µM.

Cc1nc(-c2cccc(F)c2F)c(C(=O)NC(Cc2ccccc2)C(=O)C(N)=O)o1 (stereo not drawn) [Compound 361, N-(4-amino-3,4-dioxo-1-phenylbutan-2-yl)-4-(2,3-difluorophenyl)-2-methyloxazole-5-carboxamide] was tested, and the IC50 (Human Calpain 1/NS1) was < 3 µM, the IC50 (Human Calpain 9/NS1) was < 3 µM and the IC50 [1] was < 10 µM. The IC50 [2, 4] was < 10 µM and the IC50 (Human Calpain 2/NS1) was < 3 µM.

For CC#Cc1nn(-c2ccccc2)cc1C(=O)NC(Cc1ccccc1)C(=O)C(N)=O (stereo not drawn) [Compound 562, N-(4-amino-3,4-dioxo-1-phenylbutan-2-yl)-1-phenyl-3-(prop-1-yn-1-yl)-1H-pyrazole-4-carb oxamide], the IC50 (Human Calpain 1/NS1) was > 10 µM, the IC50 (Human Calpain 9/NS1) was > 10 µM and the IC50 [1] was < 10 µM. The IC50 [2, 4] was > 25 µM and the IC50 (Human Calpain 2/NS1) was > 10 µM.

For CC[C@H](NC(=O)c1cn(C)nc1-c1ccccc1)C(=O)C(N)=O [Compound 332, (S)—N-(1-amino-1,2-dioxopentan-3-yl)-1-methyl-3-phenyl-1H-pyrazole-4-carboxamide], the IC50 (Human Calpain 1/NS1) was < 3 µM, the IC50 (Human Calpain 9/NS1) was < 3 µM and the IC50 [1] was > 25 µM. The IC50 [2, 4] was > 25 µM and the IC50 (Human Calpain 2/NS1) was < 3 µM.

In the case of CC(C)n1cc(C(=O)NC(Cc2ccccc2)C(=O)C(N)=O)c(-c2ccc(F)cc2)n1 (stereo not drawn) [Compound 474, N-(4-amino-3,4-dioxo-1-phenylbutan-2-yl)-3-(4-fluorophenyl)-1-isopropyl-1H-pyrazole-4-carboxamide], the IC50 (Human Calpain 1/NS1) is reported as < 3 µM, the IC50 (Human Calpain 9/NS1) is reported as < 3 µM and the IC50 [1] is reported as 10 to 25 µM. For the same compound, the IC50 [2, 4] was 10 to 25 µM and the IC50 (Human Calpain 2/NS1) was < 3 µM.

In the case of CCn1cc(C(=O)NC(Cc2ccccc2)C(=O)C(N)=O)c(-c2ccc(F)cc2)n1 (stereo not drawn) [Compound 471, N-(4-amino-3,4-dioxo-1-phenylbutan-2-yl)-1-ethyl-3-(4-fluorophenyl)-1H-pyrazole-4-carboxamide], the IC50 (Human Calpain 1/NS1) is reported as < 3 µM, the IC50 (Human Calpain 9/NS1) is reported as < 3 µM and the IC50 [1] is reported as 10 to 25 µM. The IC50 [2, 4] was 10 to 25 µM and the IC50 (Human Calpain 2/NS1) was < 3 µM.
